From US5300298A, “Methods of treating obesity with purine related compounds” (The Pennsylvania Research Corporation, priority 1992, dated 1994)

test system: warm-blooded animal; test: Example II: tested as BW1433 was tested in Example I (obesity; ratio of muscle mass to fat); format: in vivo, rats
Procedure: My initial studies were carried out following acute subcutaneous injections of the drug into male Sprague Dawley rats and into lean and into obese Zucker rats. Blood samples (100 microliter) were taken from the tail of the rats and measurements made of serum glycerol^6. Glycerol is an end product of lipolysis and thus an excellent indicator of the rate of whole body lipolysis. […] I discovered that in the absence of the Formula I compound tested, serum glycerol levels only differ slightly when comparing lean and obese animals. Since there is 3-4 times more fat in the obese animal this is good evidence for sluggish lipolysis per g of fat in the obese. The obese animals however seem to mobilize the fat at an earlier time after removal of their food supply (Table 1), since after 6 hours of fasting the obese serum glycerol levels are much higher than the lean.
Next, I studied the effect of chronic treatment with BW1433. For this purpose I employed 2 ml Alzet mini osmotic pumps. Each pump was loaded with 2 ml of a solution containing BW1433 or with vehicle (aqueous solution adjusted to pH II). The amount of BW1433 was adjusted so that the pump delivered either zero, 0.2 mg or 0.4 mg/Kg/hour to each animal. On the first day the animals had the pumps implanted and were given a priming (2 mg/Kg or 4 mg/Kg) dose of the antagonist. Blood was taken prior to surgery and six hours after the animals were removed from their food supply. On each subsequent day animals had free access to food and water overnight, then their food removed for six hours, and a blood sample taken.
In addition to taking blood samples for glycerol analysis, each animal was weighed every day for seven days. After seven days the animals were fasted overnight and a glucose tolerance test given The animals were then sacrificed and 1 ml blood sample taken for serum insulin and serum BW1433 determination drug levels. Insulin levels were measured with RIA kit (Diagnostic Products) and BW1433 levels were measured fluorometrically after HPLC separation at Burroughs Wellcome, Research Triangle Park, North Carolina. […] Nonetheless, when glucose tolerance curves were administered on day 7, drug-related differences could still be seen in all animals studied. […] This is illustrated more clearly in FIG. 4 where the area under the glucose tolerance curve is shown as a bar for each of the 6 groups of animals. […] FIG. 5 is a chart of the change in weight of treated and untreated lean and obese animals. […] The effect on weight change in each case was maximal at day 3, the day when the glycerol values peaked. Based on these remarkable results, the compounds of Formula I can be administered to obese warm-blooded animals as anti-obesity agents, or administered to farm animals to advantageously increase the ratio of muscle mass to fat therein.

Structure (SMILES) | activity in method of treating obesity in a warm-blooded animal and in increasing the ratio of muscle mass to fat in farm animals
Cn1c(=O)c2nc(-c3ccc(/C=C/C(=O)O)cc3)[nH]c2n(C)c1=O [compound 2, (E)-4-(1,2,3,6-tetrahydro-1,3-dimethyl-2,6-dioxo-9H-purin-8-yl)cinnamic acid] | active and effective
CCCn1c(=O)c2nc(-c3ccc(/C=C/C(=O)O)cc3)[nH]c2n(C)c1=O [compound 3, (E)-4-(1,2,3,6-tetrahydro-3-methyl-2,6-dioxo-1-propyl-9H-purin-8-yl)cinnamic acid] | active and effective
CCn1c(=O)c2nc(-c3ccc(/C=C/C(=O)O)cc3)[nH]c2n(CC)c1=O [compound 4, (E)-4-(1,3-diethyl-1,2,3,6-tetrahydro-2,6-dioxo-9H-purin-8-yl)cinnamic acid] | active and effective
C=CCn1c(=O)c2nc(-c3ccc(/C=C/C(=O)O)cc3)[nH]c2n(CC=C)c1=O [compound 5, (E)-4-(1,3-diallyl-1,2,3,6-tetrahydro-2,6-dioxo-9H-purin-8-yl)cinnamic acid] | active and effective
Cn1c(=O)[nH]c(=O)c2nc(-c3ccc(/C=C/C(=O)O)cc3)[nH]c21 [compound 6, (E)-4-(1,2,3,6-tetrahydro-3-methyl-2,6-dioxo-9H-purin-8-yl)cinnamic acid] | active and effective
CCn1c(=O)[nH]c(=O)c2nc(-c3ccc(/C=C/C(=O)O)cc3)[nH]c21 [compound 7, (E)-4-(3-ethyl-1,2,3,6-tetrahydro-2,6-dioxo-9H-purin-8-yl)cinnamic acid] | active and effective
CCCn1c(=O)[nH]c(=O)c2nc(-c3ccc(/C=C/C(=O)O)cc3)[nH]c21 [compound 8, (E)-4-(1,2,3,6-tetrahydro-2,6-dioxo-3-propyl-9H-purin-8-yl)cinnamic acid] | active and effective
CC(C)Cn1c(=O)[nH]c(=O)c2nc(-c3ccc(/C=C/C(=O)O)cc3)[nH]c21 [compound 9, (E)-4-(1,2,3,6-tetrahydro-3-isobutyl-2,6-dioxo-9H-purin-8-yl)cinnamic acid] | active and effective
CCCn1c(=O)n(C)c(=O)c2nc(-c3ccc(/C=C/C(=O)O)cc3)[nH]c21 [compound 10, (E)-4-(1,2,3,6-tetrahydro-1-methyl-2,6-dioxo-3-propyl-9H-purin-8-yl)cinnamic acid] | active and effective
CC(C)Cn1c(=O)n(C)c(=O)c2nc(-c3ccc(/C=C/C(=O)O)cc3)[nH]c21 [compound 11, (E)-4-(1,2,3,6-tetrahydro-3-isobutyl-1-methyl-2,6-dioxo-9H-purin-8-yl)cinnamic acid] | active and effective
CCn1c(=O)c2nc(-c3ccc(/C=C/C(=O)O)cc3)[nH]c2n(C)c1=O [compound 12, (E)-4-(1-ethyl-1,2,3,6-tetrahydro-3-methyl-2,6-dioxo-9H-purin-8-yl)cinnamic acid] | active and effective
CCCCn1c(=O)c2nc(-c3ccc(/C=C/C(=O)O)cc3)[nH]c2n(CCCC)c1=O [compound 13, (E)-4-(1,3-dibutyl-1,2,3,6-tetrahydro-2,6-dioxo-9H-purin-8-yl)cinnamic acid] | active and effective
O=C(O)/C=C/c1ccc(-c2nc3c(=O)n(Cc4ccccc4)c(=O)n(Cc4ccccc4)c3[nH]2)cc1 [compound 14, (E)-4-(1,3-dibenzyl-1,2,3,6-tetrahydro-2,6-dioxo-9H-purin-8-yl)cinnamicacid] | active and effective
CCCCn1c(=O)n(C)c(=O)c2nc(-c3ccc(/C=C/C(=O)O)cc3)[nH]c21 [compound 15, (E)-4-(3-butyl-1,2,3,6-tetrahydro-1-methyl-2,6-dioxo-9H-purin-8-yl)cinnamicacid] | active and effective
CCCCn1c(=O)c2nc(-c3ccc(/C=C/C(=O)O)cc3)[nH]c2n(C)c1=O [compound 16, (E)-4-(1-butyl-1,2,3,6-tetrahydro-3-methyl-2,6-dioxo-9H-purin-8-yl)cinnamic acid] | active and effective
Cn1c(=O)c2nc(-c3ccc(/C=C/C(=O)O)cc3)[nH]c2n(Cc2ccccc2)c1=O [compound 17, (E)-4-(3-benzyl-1,2,3,6-tetrahydro-1-methyl-2,6-dioxo-9H-purin-8-yl)cinnamic acid] | active and effective
CC(C)Cn1c(=O)c2nc(-c3ccc(/C=C/C(=O)O)cc3)[nH]c2n(CC(C)C)c1=O [compound 18, (E)-4-(1,2,3,6-tetrahydro-1,3-diisobutyl-2,6-dioxo-9H-purin-8-yl)cinnamic acid] | active and effective
Cn1c(=O)c2[nH]c(-c3ccc(/C=C/C(=O)O)cc3)nc2n(C)c1=S [compound 19, (E)-4-(1,2,3,6-tetrahydro-1,3-dimethyl-6-oxo-2-thio-9H-purin-8-yl)cinnamicacid] | active and effective
Cn1c(=O)c2nc(-c3ccc(/C=C/C(=O)O)cc3)[nH]c2n(Cc2ccc(C#N)cc2)c1=O [compound 20, (E)-4-[3-(4-cyanobenzyl)-1,2,3,6-tetrahydro-1-methyl-2,6-dioxo-9H-purin-8-yl]cinnamic acid] | active and effective
Cn1c(=O)c2nc(-c3ccc(/C=C/C(=O)O)cc3)[nH]c2n(Cc2cccc(C#N)c2)c1=O [compound 21, (E)-4-[3-(3-cyanobenzyl)-1,2,3,6-tetrahydro-1-methyl-2,6-dioxo-9H-purin-8-yl]cinnamic acid] | active and effective
CCCn1c(=O)c2nc(-c3ccc(C#CC(=O)O)cc3)[nH]c2n(CCC)c1=O [compound 22, 3-[4-(1,2,3,6-tetrahydro-2,6-dioxo-1,3-dipropyl-9H-purin-8-yl)phenyl]propiolic acid] | active and effective
Cn1c(=O)n(Cc2ccc(C#N)cc2)c(=O)c2nc(-c3ccc(/C=C/C(=O)O)cc3)[nH]c21 [compound 23, (E)-4-[1-(4-cyanobenzyl)-1,2,3,6-tetrahydro-3-methyl-2,6-dioxo-9H-purin-8-yl]cinnamic acid] | active and effective
CCCn1c(=O)n(Cc2ccccc2)c(=O)c2nc(-c3ccc(/C=C/C(=O)O)cc3)[nH]c21 [compound 24, (E)-4-(1-benzyl-1,2,3,6-tetrahydro-2,6-dioxo-3-propyl-9H-purin-8-yl)cinnamic acid] | active and effective
CCCn1c(=O)c2nc(-c3ccc(/C=C/C(=O)O)cc3)[nH]c2n(Cc2ccccc2)c1=O [compound 25, (E)-4-(3-benzyl-1,2,3,6-tetrahydro-2,6-dioxo-1-propyl-9H-purin-8-yl)cinnamic acid] | active and effective
